Experiments:
[1] = system: LN-229 human glioblastoma cells; conditions: in vitro; cited from earlier work
[2] = system: LN229 human glioblastoma cell line; experiment: Cell viability (MTT assay), LN229; assay type: cell-based; conditions: MTT
[3] = Toxicity in mice: body weight and histopathology; assay type: in vivo, C57BL/6 mice; conditions: 14 days
Procedure: (§1) Panel A: PP1 accumulation in different tissues following oral administration of PP1 (25 mg/kg). C57BL/6 mice were treated daily for 14 days, and the levels of PP1 in the blood, liver, spleen, kidney, heart, brain and in brain tumors, were evaluated by HPLC, as previously described. Data represent average values with standard deviation (n=3). Panel B: Body weight of C57BL/6 mice treated with PP1. Mice were treated with the PP1 at doses ranging from 25 to 75 mg/kg/day administered by oral gavage. Following 7 and 14 days of daily drug administration both control (DMSO-treated) and experimental (PP1-treated) mice were weighted. Data represent average values with standard deviation (at least three mice per group were included). In Panels A and B, tumor free and tumor bearing mice were included for the body weight measurement. Panels C, D and E: Intracranial growth of GL-261-Luc cells. C57 black mice, 6-8 weeks of age were anesthetized with 4% isoflurane and secured in a stereotaxic head frame (Harvard Apparatus, Holliston Mass.). GL-261-luc cells (1×10^5 cells in 2 μl; PerkinElmer Inc.) were injected into the brain parenchyma (coordinates: 3 mm anterior to Bregma; 1.5 mm lateral to Sagital suture; 3 mm down from surface) through a burr hole in the skull using a 10 μl Hamilton syringe. Panel C: Mice with large intracranial tumors were selected using bioluminescence imaging with Xenogen IVIS 200 system. Tumor size is expressed as radiance (photons/s/cm2/sr) and was quantified with the Living Image 4.1 software according to the manufacturer's recommendations (Xenogen). Panels D and E: Pathological evaluation of intracranial tumors and tissues. Following 14 days of drug administration (control: DMSO administered daily by oral gavage; PP1 50 mg/kg administered daily by oral gavage) the animals were euthanized, and the following organs were collected: liver, kidneys, spleen, heart, intact brain and intracranial tumors. The tissues were formalin-fixed, paraffin-embedded, and the resulting thin section were stained with hematoxylin and eosin (H&E) for a routine pathological evaluation.
(§2) Animal studies—All described procedures involving experimental animals were performed in accordance to the IACUC protocol #3444 at LSUHSC, New Orleans. C57BL/6NHsd mice, 11-12 weeks of age (Envigo), were anesthetized with 4% isoflurane and secured in a stereotaxic head frame (Harvard Apparatus, Holliston Mass.). […] The resulting images were evaluated and luminescence measurements from equivalent regions of interest encompassing the entire skull were collected using Living Image 4.1 software (Xenogen). […]

[4] = system: intracranial GL-261 glioblastoma tumors; experiment: Intracranial GL-261-luc glioblastoma model, pathological evaluation of tumors; assay type: in vivo, C57BL/6 mice; conditions: 50 mg/kg/day oral, 14 days, large pre-existing tumors, n=3
Procedure: Panel A: PP1 accumulation in different tissues following oral administration of PP1 (25 mg/kg). C57BL/6 mice were treated daily for 14 days, and the levels of PP1 in the blood, liver, spleen, kidney, heart, brain and in brain tumors, were evaluated by HPLC, as previously described. Data represent average values with standard deviation (n=3). Panel B: Body weight of C57BL/6 mice treated with PP1. Mice were treated with the PP1 at doses ranging from 25 to 75 mg/kg/day administered by oral gavage. Following 7 and 14 days of daily drug administration both control (DMSO-treated) and experimental (PP1-treated) mice were weighted. Data represent average values with standard deviation (at least three mice per group were included). In Panels A and B, tumor free and tumor bearing mice were included for the body weight measurement. Panels C, D and E: Intracranial growth of GL-261-Luc cells. […] Tumor size is expressed as radiance (photons/s/cm2/sr) and was quantified with the Living Image 4.1 software according to the manufacturer's recommendations (Xenogen). […]
as §2, with “Orleans.” for “Orleans. C57BL/6NHsd mice, 11-12 weeks of age (Envigo), were anesthetized with 4% isoflurane and secured in a stereotaxic head frame (Harvard Apparatus, Holliston Mass.).”

[5] = system: GL-261-luc mouse glioblastoma cell line; experiment: Cell death, trypan blue, GL-261; conditions: 5-50 μM, 96 h
Procedure: The percentage of cell death was calculated at 96-hour time point for all experimental conditions.

[6] = PP1 tissue distribution after oral administration (HPLC); assay type: in vivo, C57BL/6 mice
Procedure: as §1
Detection of PP compounds by high performance liquid chromatography (HPLC) —All HPLC data were obtained from the Agilent 1100 apparatus equipped with a line degasser, binary pump (high pressure mixer), autosampler, column thermostat and Diode Array Detector (DAD) (Agilent Technologies, Santa Clara, Calif.). The analytical column 3 μm, 4.6×150 mm (Octyl Silane C8; YMC America, Inc.), solvent A—50 mM acetic acid in water, and solvent B—acetonitrile, with isocratic flow were used to detect and quantify PP compounds in culture media, in cells, tissues and body fluids. The flow rate was set to 1 ml/min, column temperature was 20° C., and the sample volume was 5 μl. DAD wavelength was set to 285 nm. Sample preparation. Blood, cell culture media, cellular and tissue lysates, were deproteinized by adding 150 μl of acetonitrile to 150 μl of sample, mixed well and centrifuged (15 000 g, 5 min). The lysates were sonicated on ice and centrifuged (15 000 g, 5 min). Finally, 150 μl of the supernatant was mixed with the equal volume of acetonitrile, filtered through 0.22 μm centrifuge filter (Sigma) and analyzed by High Performance Liquid Chromatography (HPLC).
Animal studies—All described procedures involving experimental animals were performed in accordance to the IACUC protocol #3444 at LSUHSC, New Orleans. C57BL/6NHsd mice, 11-12 weeks of age (Envigo), were anesthetized with 4% isoflurane and secured in a stereotaxic head frame (Harvard Apparatus, Holliston Mass.). GL-261-luc cells (1×105) (PerkinElmer Inc.) were suspended in PBS and 2 μl aliquots were injected into the brain parenchyma (coordinates: 3 mm anterior to Bregma; 1.5 mm lateral to Sagital suture; 3 mm down from surface) through a burr hole in the skull using a 10 μl Hamilton syringe. […]

## CN(CCO)C(=O)C(C)(C)Oc1ccc(C(=O)c2ccc(Cl)cc2)cc1 [PP1, 2-[4-(4-chlorobenzoyl)phenoxy]-N-(2-hydroxyethyl)-N,2-dimethylpropanamide]
[1]
  concentration at which highly effective tumor cell death occurs: 10 µM
[2]; 1 μM
  CV = Cell viability (% of control): 98.36±1.61 % of control
[2]; 5 μM
  CV = Cell viability (% of control): 70.03±2.04 % of control
[2]; 10 μM
  CV = Cell viability (% of control): 43.67±1.88 % of control
[3]; 25-75 mg/kg/day oral gavage, tumor-free and tumor bearing mice
  overall toxicity and body weight: did not show any signs of overall toxicity and maintained their body weight
[3]; oral gavage daily
  histology, heart, kidney and intact brain: did not show any signs of pathology
  histology, liver: inflammation and focal necrotic areas in the liver
  histology, spleen: enlarged spleen with accumulation of hemosiderin
[4]
  necrosis within the tumor mass: multiple large areas of necrotic tissue within the tumor mass
[5]
  in vitro cytotoxicity: high in vitro cytotoxicity
[6]; C57BL/6, mouse, brain tumor tissue, po, 25 mg/kg, orally administered, mice, read-out: HPLC-measured concentration in the brain tumor tissues
  concentration at 14 days: 5 to 6 µM
[6]; oral gavage daily, 14 days
  accumulation in the liver: 10.3 ± 4.3 µM
  concentration in intracranial tumors: 5.8 ± 0.7 µM
  level in intact brains: 4.9 ± 3.4 µM
  level in the blood: 3.05 ± 0.2 µM
  level in the heart: 6.1 ± 2.4 µM
  level in the spleen: 7.6 ± 3.2 µM
[6]; oral gavage daily, 14 days, in µM
  accumulation in the kidney: 8.8+/−4.7

From patent publication US20220304957A1, “ANTI-CANCER COMPOSITIONS AND METHODS OF USE” (Board of Supervisors of Louisiana State University and …, priority 2019, published 2022)
